Measurements published in publication PMC5511861, “DS16570511 is a small-molecule inhibitor of the mitochondrial calcium uniporter” (Cell Death Discovery, 2017).

What was measured:
[1] = system: membrane potential of pig heart mitochondria; assay: Mitochondrial membrane potential assay (JC-10) in pig heart mitochondria; format: biochemical; conditions: JC-10, 5 min incubation
Excerpt: Next we analyzed the mechanism of action of DS16570511. The previous studies implicated two possible inhibitory mechanisms for the mitochondrial Ca^2+ uptake: (1) direct blockade of the calcium uniporter and (2) disruption of the membrane potential.[20],[21] Mitochondrial Ca^2+ uptake is mediated by electrical potential across the mitochondrial inner membrane, which is generated by the oxidative phosphorylation system. […] To examine effects on the mitochondrial membrane potential, fluorescent indicator JC-10 was used in mitochondria from pig heart.
(a) Effect of FCCP on Ca^2+ uptake of pig heart mitochondria. […] Relative membrane potential 0 or 100% is defined as value of 1 μM FCCP-treated mitochondria or vehicle-treated mitochondria, respectively. Data are mean with S.E.M. from three (a) or four (b) independent samples.
Pig heart mitochondria were prepared as described above and suspended in the swelling buffer containing 1 μM JC-10. The protein concentration of the solution was 5 mg/ml. Five minutes after incubation of the mitochondria with DS16570511 at room temperature, fluorescence intensities were measured by a FlexStation 3 (Molecular Devices, LLC, Sunnyvale, CA, USA) using the green channel (excitation/emission wavelength: 485/538 nm) or the red channel (excitation/emission wavelength: 485/612 nm).

[2] = system: Hela cells; design: method as in PMID 17471180; conditions: cited from earlier work
[3] = system: cultured myocytes; design: method as in PMID 22425903; conditions: cited from earlier work
[4] = biological target: T1, mitochondrial calcium uniporter (Homo sapiens, UniProt Q8NE86); assay: Ca2+ uptake of isolated mitochondria from HEK293A cells (aequorin luminescence); format: biochemical; design: isolated mitochondria from HEK293A cells were used; endogenous in cells; host or cells: mitochondria isolated from HEK293A cells stably expressing mitochondria-targeted aequorin
T1 sequence (Q8NE86 51-351): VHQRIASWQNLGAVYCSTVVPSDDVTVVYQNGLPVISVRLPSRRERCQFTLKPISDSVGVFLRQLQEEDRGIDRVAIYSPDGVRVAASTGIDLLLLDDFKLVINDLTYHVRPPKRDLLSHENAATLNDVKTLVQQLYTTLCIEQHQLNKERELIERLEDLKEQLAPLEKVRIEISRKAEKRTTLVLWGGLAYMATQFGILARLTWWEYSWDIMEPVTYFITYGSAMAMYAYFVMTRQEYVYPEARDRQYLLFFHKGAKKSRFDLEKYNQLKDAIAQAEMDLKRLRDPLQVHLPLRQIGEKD
T1 sequence (Q9H4I9 48-107 partner limits assumed): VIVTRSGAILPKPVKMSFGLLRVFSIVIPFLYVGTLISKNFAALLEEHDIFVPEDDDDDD
Procedure: Mitochondrial Ca^2+ uptake activity is regulated by cytosolic protein kinase signaling,[19] raising the possibility that HTS hits contained indirect inhibitors of the uniporter, such as inhibitors of cytosolic signaling. To examine the direct inhibitory effect of the compounds on the mitochondrial Ca^2+ uptake, isolated mitochondria from HEK293A cells were used. Ca^2+ uptake of the isolated mitochondria was observed as a rapid increase in the luminescence level after application of 100 μM Ca^2+ (Figure 2a).
Figure 2 DS16570511 inhibits Ca^2+ uptake in isolated mitochondria from HEK293A cells. (a) Representative raw data of Ca^2+ uptake in isolated mitochondria. (b) Effect of DS16570511 or Ru360 on mitochondrial Ca^2+ uptake. The area under the curve of temporal aequorin activities is used for calculation of inhibitory activities. Inhibition 0 or 100% is defined as a value of […], respectively. Data are mean with S.E.M. from three independent samples.
To monitor Ca^2+ uptake activity of isolated mitochondria, mitochondria were prepared from the cells (1×10^8 cells) stably expressing mitochondria-targeted aequorin by using a mitochondria isolation kit. […] The luminescence levels were detected as described above.

[5] = system: Ca2+ uptake of pig heart mitochondria; assay: Ca2+ uptake assay using isolated pig heart mitochondria (atomic absorbance spectrometer); format: biochemical; conditions: 100 μM CaCl2
Procedure: (§1) We then asked whether DS16570511 inhibits Ca^2+ uptake in isolated mitochondria from animal heart. An atomic absorbance spectrometer-based detection method was employed to analyze intramitochondrial Ca^2+ levels. We prepared freshly isolated mitochondria from pig heart, and the mitochondria were incubated with 100 μM CaCl2.
(§2) (a) Effect of RuR on Ca^2+ uptake of pig heart mitochondria. […] Data are mean with S.E.M. from three independent samples. (b) Inhibition rate of RuR or DS16570511 on Ca^2+ uptake of pig heart mitochondria. Inhibition 0 or 100% is defined as a value of Ca^2+-untreated mitochondria or Ca^2+-treated mitochondria, respectively. Data are mean with S.E.M. from three independent samples. (c) Inhibition rate of RuR or DS16570511 on Ca^2+ uptake of rat heart mitochondria. Data are mean with S.E.M./variation from three or two independent samples for DS16570511 or RuR, respectively.
Mitochondria were isolated by using the mitochondria isolation kit and then dissolved in the swelling buffer. The protein concentration of the mitochondrial solution was 5 mg/ml. Thirty minutes after application of CaCl2 (final concentration of 100 μM) to the solution, the mitochondria were collected by centrifugation (3000 g) at 4 °C. The pellets were resuspended in the swelling buffer containing 1 μM RuR. After collection of the mitochondria by centrifugation (3000 g), the pellets were dried and dissolved by 40 μl of sulfuric acid at 95 °C.

[6] = system: Ca2+ uptake of rat heart mitochondria; assay: Ca2+ uptake assay using isolated rat heart mitochondria (atomic absorbance spectrometer); format: biochemical; conditions: 100 μM CaCl2; read-out: IC50, inhibition of Ca2+ uptake of rat heart mitochondria
Procedure: as §1
as §2, with “Figure 3 DS16570511 inhibits Ca^2+ uptake in isolated heart mitochondria. (a)” for “(a)”
Mitochondria were isolated by using the mitochondria isolation kit and then dissolved in the swelling buffer. The protein concentration of the mitochondrial solution was 5 mg/ml. […] The solution was then diluted by water, and Ca^2+ concentration of the solution was measured by atomic absorbance spectrometer (Hitachi High-Technologies Corporation, Z-2710, Tokyo, Japan).

[7] = system: recombinant MCU multimers; design: method as in PMID 26285678; conditions: lipid bilayer; cited from earlier work

## N#CC(C#N)=NNc1ccc(OC(F)(F)F)cc1 [FCCP, carbonyl cyanide-p-trifluoromethoxyphenylhydrazone]
[1]
  effect on mitochondrial membrane potential: disruption of the potential in a dose-dependent manner

## N=C(N)SCCc1ccc(OCc2ccc([N+](=O)[O-])cc2)cc1 [KB-R7943]
[2]
  effect on agonist-induced mitochondrial Ca2+ influx: inhibit

## CS(=O)(=O)O.CS(=O)(=O)O.O=S1(=O)CCN(Cc2cc(NCC3CCOCC3)c3[nH]c(-c4ccccc4)cc3c2)CC1 [NecroX-5]
[3]
  effect on Ca2+ accumulation: attenuate

## N.N.N.N.N.N.N.N.O=C[O-].O=C[O-].[O-2].[Ru+3].[Ru+4] [Ru360, Ruthenium 360, reference compound]
[1]
  effect on mitochondrial membrane potential: no effect
[4]
  IC50: 20 nM

## N.N.N.N.N.N.N.N.N.N.N.N.N.N.[Cl-].[Cl-].[Cl-].[Cl-].[Cl-].[Cl-].[O-2].[O-2].[Ru+3].[Ru+3].[Ru+4] [RuR, Ruthenium Red]
[5]
  effect on Ca2+ uptake activity of isolated pig heart mitochondria (in words): fully blocked
[5]; read-out: IC50, inhibition of Ca2+ uptake of pig heart mitochondria
  IC50: 30 nM
[6]
  IC50: 100 nM
[7]
  effect on Ca2+ channel activity mediated by recombinant MCU multimers: inhibited
